What was measured:
[1] = target: Protein kinase C gamma type (Rattus norvegicus, UniProt P63319); assay: Inhibition of Protein kinase C gamma (PKC)
[2] = target: Protein kinase C alpha type (Rattus norvegicus, UniProt P05696); assay: Inhibition of Protein kinase C alpha
Phosphorylase kinase = assay: Inhibition of phosphorylase kinase (PhK); format: protein-complex assay
[3] = target: T1, Protein kinase C beta type (Rattus norvegicus, UniProt P68403); assay: Inhibition of Protein kinase C beta 1
[4] = target: T1, Protein kinase C beta type; assay: Inhibition of Protein kinase C beta
[5] = target: cAMP-dependent protein kinase (PKA) (Homo sapiens, UniProt P22694+P17612+P22612); assay: Inhibition of cyclic AMP dependent protein kinase A (PKA); format: protein assay
Protein kinase C (PKC) [6] = assay: Inhibition of protein kinase C (PKC); format: protein assay
[7] = target: T2, Protein kinase C epsilon type (Rattus norvegicus, UniProt P09216); assay: Inhibition of Protein kinase C epsilon
T2 sequence (P09216 whole entry): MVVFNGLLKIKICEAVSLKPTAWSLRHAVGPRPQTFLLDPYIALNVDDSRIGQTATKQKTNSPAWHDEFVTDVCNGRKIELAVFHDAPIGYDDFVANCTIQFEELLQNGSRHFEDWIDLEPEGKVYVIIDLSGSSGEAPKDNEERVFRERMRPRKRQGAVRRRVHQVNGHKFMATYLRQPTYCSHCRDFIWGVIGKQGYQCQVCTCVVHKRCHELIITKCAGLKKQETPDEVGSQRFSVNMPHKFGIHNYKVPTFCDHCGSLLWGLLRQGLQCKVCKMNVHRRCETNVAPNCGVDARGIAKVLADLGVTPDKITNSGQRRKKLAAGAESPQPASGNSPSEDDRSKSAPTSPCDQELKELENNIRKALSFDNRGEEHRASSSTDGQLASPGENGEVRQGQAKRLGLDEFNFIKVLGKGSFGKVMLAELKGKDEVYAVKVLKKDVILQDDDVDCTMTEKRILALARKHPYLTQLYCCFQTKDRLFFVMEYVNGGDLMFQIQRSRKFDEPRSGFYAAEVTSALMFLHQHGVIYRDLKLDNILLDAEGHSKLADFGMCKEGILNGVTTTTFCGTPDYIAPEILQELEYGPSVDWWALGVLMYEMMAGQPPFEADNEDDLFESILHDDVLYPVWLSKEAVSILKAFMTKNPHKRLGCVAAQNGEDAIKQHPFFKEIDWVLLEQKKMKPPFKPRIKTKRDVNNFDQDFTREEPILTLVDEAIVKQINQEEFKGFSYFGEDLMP

Protein kinase C (PKC) [8] = assay: Inhibition of protein kinase C from rat brain (PKC)

T1 sequence (P68403 whole entry): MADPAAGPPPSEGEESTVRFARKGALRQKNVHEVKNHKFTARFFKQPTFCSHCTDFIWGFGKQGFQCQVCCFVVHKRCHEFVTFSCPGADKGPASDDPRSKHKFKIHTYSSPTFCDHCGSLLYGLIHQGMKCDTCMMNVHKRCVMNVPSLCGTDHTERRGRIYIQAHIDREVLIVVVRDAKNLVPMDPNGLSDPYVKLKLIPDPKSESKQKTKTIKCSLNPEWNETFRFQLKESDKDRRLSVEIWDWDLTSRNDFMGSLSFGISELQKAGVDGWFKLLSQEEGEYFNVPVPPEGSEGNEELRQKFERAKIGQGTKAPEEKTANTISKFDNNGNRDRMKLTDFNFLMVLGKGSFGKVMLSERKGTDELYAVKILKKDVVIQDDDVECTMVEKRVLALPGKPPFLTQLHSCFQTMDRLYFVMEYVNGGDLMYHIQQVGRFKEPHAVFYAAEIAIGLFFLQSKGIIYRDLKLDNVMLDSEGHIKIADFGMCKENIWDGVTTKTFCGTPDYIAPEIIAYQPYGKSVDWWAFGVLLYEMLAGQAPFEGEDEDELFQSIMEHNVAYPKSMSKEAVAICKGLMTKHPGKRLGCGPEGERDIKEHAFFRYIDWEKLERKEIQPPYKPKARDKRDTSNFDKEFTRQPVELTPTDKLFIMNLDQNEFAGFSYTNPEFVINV

IC50 [1] [nM]	IC50 [2] [nM]	IC50 (Phosphorylase kinase) [nM]	IC50 [3] [nM]	IC50 [4] [nM]	IC50 [5] [nM]	IC50 (Protein kinase C (PKC) [6]) [nM]	IC50 [7] [nM]	IC50 (Protein kinase C (PKC) [8]) [nM]	SMILES
5.4	2.85	1690	5.3	6.8	2800	5	48	6.8	CN1C[C@@H]2Cn3c(c(C4=C(c5cn(C)c6ccccc56)C(=O)NC4=O)c4ccccc43)C[C@H]2C1.Cl (stereo in doubt; form 1)
		3800			5500	8			CN1C[C@@H]2Cn3c(c(C4=C(c5cn(C)c6ccccc56)C(=O)NC4=O)c4ccccc43)C[C@H]2C1.Cl (stereo in doubt; form 2)
36.5	8.8	15600	28	30.5	223375		105	21	CN(C)C[C@H]1CCn2c(c(C3=C(c4cn(C)c5ccccc45)C(=O)NC3=O)c3ccccc32)C1 [RO-320432]
